From PubChem BioAssay (NCI)
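All cell lines were grown in 96-well plates and treated with compound for 48 hours. TGI denotes the concentration required for complete inhibition of growth.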 Where a SMILES comes first, the peptide text is derived from it. Bridges are numbered along the chain shown (N, C = ends). The star is where a group is joined. Cbz = O=C(OCc1ccccc1)*

Tests used:
Experiment in all cases: inhibition of tumour cell growth, NCI panel, 48 h
[1] = system: SW-620 colon
[2] = system: HOP-92 NSCLC
[3] = system: RPMI-8226 leukemia
[4] = system: ACHN renal
[5] = system: LOX IMVI melanoma
[6] = system: TK-10 renal
[7] = system: HL-60(TB) leukemia
[8] = system: NCI/ADR-RES ovarian
[9] = system: MDA-N
[10] = system: BT-549 breast

How did the TGI [1] turn out when CCOP(=O)(OCC)C1(O)CC(n2cc(C)c(=O)[nH]c2=O)OC1CO (centres undefined) was run?
Its TGI is over 100 µM.

And the TGI [2]?
Its TGI is over 100 µM.

And the TGI [3]?
The TGI was over 100 µM.

And the TGI [4]?
Its TGI is over 100 µM.

What about the TGI [5] of the same compound?
The TGI was over 100 µM.

What about the TGI [6] of the same compound?
The TGI was over 100 µM.

What about the TGI [7] of the same compound?
Its TGI is over 100 µM.

What about the TGI [8] of the same compound?
The TGI was over 100 µM.

And the TGI [9]?
The TGI was over 100 µM.

Which TGI [1] does the source give for C=C(Br)CNCC(=C)Br here?
The TGI was over 100 µM.

What about the TGI [3] of the same compound?
The TGI was over 100 µM.

And the TGI [4]?
Its TGI is over 100 µM.

And the TGI [5]?
The TGI was over 100 µM.

And the TGI [6]?
The TGI was over 100 µM.

And the TGI [7]?
The TGI was over 100 µM.

And the TGI [8]?
Its TGI is over 100 µM.

What about the TGI [9] of the same compound?
The TGI was over 100 µM.

How did the TGI [1] turn out when COc1cc(C(c2cccc3ccccc23)N2C(=O)CCC2C(=O)NCc2ccccc2)cc(OC)c1OC (centres undefined) was run?
Its TGI is over 100 µM.

What about the TGI [2] of the same compound?
Its TGI is over 100 µM.

What about the TGI [3] of the same compound?
The TGI was over 100 µM.

What about the TGI [10] of the same compound?
The TGI was over 100 µM.

What about the TGI [5] of the same compound?
Its TGI is over 100 µM.

And the TGI [7]?
The TGI was over 100 µM.

What about the TGI [8] of the same compound?
The TGI was over 100 µM.

And the TGI [9]?
The TGI was over 100 µM.

N#CC1(c2ccccc2)CCN(C2(c3ccccc3)CCCCC2)CC1 was tested. Which TGI [1] did it give?
Its TGI is over 100 µM.

What about the TGI [3] of the same compound?
Its TGI is over 100 µM.

And the TGI [4]?
The TGI was over 100 µM.

And the TGI [10]?
The TGI was over 100 µM.

What about the TGI [5] of the same compound?
The TGI was over 100 µM.

And the TGI [6]?
The TGI was over 100 µM.

And the TGI [7]?
Its TGI is over 100 µM.

What about the TGI [8] of the same compound?
Its TGI is over 100 µM.

What about the TGI [9] of the same compound?
Its TGI is over 100 µM.

With CC(C)(C)c1cc(C(=O)/C=C/c2ccn[nH]2)cc(C(C)(C)C)c1O as the compound, how does the TGI [1] read?
The TGI was 6.27 µM.

What about the TGI [2] of the same compound?
The TGI was 5.53 µM.

And the TGI [3]?
Its TGI is 3.37 µM.

What about the TGI [4] of the same compound?
The TGI was 3.03 µM.

And the TGI [10]?
The TGI was 17 µM.

And the TGI [5]?
The TGI was 3.48 µM.

What about the TGI [6] of the same compound?
Its TGI is 2.92 µM.

What about the TGI [7] of the same compound?
The TGI was 5.64 µM.

What about the TGI [8] of the same compound?
Its TGI is 16.1 µM.

For O=C1c2ccccc2-c2nc(-c3ccccc3)cc3c2c1nc1ccccc13, which TGI [1] is on record?
The TGI was 36.6 µM.

What about the TGI [3] of the same compound?
The TGI was 22 µM.

What about the TGI [4] of the same compound?
The TGI was 91.5 µM.

And the TGI [10]?
Its TGI is 42.9 µM.

What about the TGI [5] of the same compound?
Its TGI is 10 µM.

What about the TGI [6] of the same compound?
Its TGI is 42.5 µM.

And the TGI [7]?
Its TGI is 15 µM.

What about the TGI [8] of the same compound?
Its TGI is 47.1 µM.

And the TGI [9]?
The TGI was 3.67 µM.

For C/C=C/[C@H]1O[C@@](O)([C@@H](C)[C@H](O)[C@H](C)[C@H]2OC(=O)/C(OC)=C/C(C)=C/[C@@H](C)[C@@H](O)[C@@H](CC)[C@@H](O)[C@H](C)C/C(C)=C/C=C/[C@@H]2OC)C[C@H](OC2CC(O)C(OC(N)=O)C(C)O2)[C@@H]1C (some centres undefined), which TGI [1] is on record?
The TGI was 15.3 µM.

What about the TGI [2] of the same compound?
The TGI was 2.4 µM.

What about the TGI [3] of the same compound?
The TGI was 0.205 µM.

And the TGI [4]?
The TGI was 16.7 µM.

What about the TGI [10] of the same compound?
Its TGI is 19.7 µM.

What about the TGI [5] of the same compound?
The TGI was 0.0614 µM.

What about the TGI [6] of the same compound?
Its TGI is 31.7 µM.

And the TGI [8]?
Its TGI is 26.8 µM.

Which results are given for CCC(=O)NC(OCC1(CC)COC1)(C(F)(F)F)C(F)(F)F?
TGI [3]: > 100 µM; TGI [4]: > 100 µM; TGI [10]: > 100 µM; TGI [5]: > 100 µM; TGI [6]: > 100 µM; TGI [7]: > 100 µM; TGI [9]: > 100 µM

COc1nc(OC)nc(-c2cccc(F)c2)n1 was tested. Which TGI [1] did it give?
Its TGI is 40.6 µM.

What about the TGI [2] of the same compound?
Its TGI is 38.8 µM.

And the TGI [3]?
The TGI was 45.3 µM.

And the TGI [4]?
The TGI was 30.7 µM.

What about the TGI [10] of the same compound?
The TGI was 29.7 µM.

What about the TGI [5] of the same compound?
Its TGI is 43.7 µM.

What about the TGI [6] of the same compound?
Its TGI is 33.1 µM.

And the TGI [7]?
Its TGI is over 100 µM.

What about the TGI [8] of the same compound?
The TGI was 31.7 µM.

For CC(=O)Nc1ccc(C(=O)NN2C(=O)C(Cl)C2c2ccc(O)cc2)cc1 (centres undefined), which TGI [1] is on record?
Its TGI is over 100 µM.

What about the TGI [4] of the same compound?
The TGI was over 100 µM.

What about the TGI [5] of the same compound?
The TGI was over 100 µM.

What about the TGI [6] of the same compound?
Its TGI is over 100 µM.

And the TGI [7]?
The TGI was over 100 µM.

For OC(CCN1CCN(CCOC(c2ccccc2)c2ccccc2)CC1)c1ccc(Br)cc1 (centres undefined), which TGI [1] is on record?
Its TGI is 44.5 µM.

What about the TGI [2] of the same compound?
Its TGI is 25.1 µM.

What about the TGI [4] of the same compound?
The TGI was 22.9 µM.

And the TGI [10]?
The TGI was 26.1 µM.

And the TGI [5]?
The TGI was 23.5 µM.

And the TGI [6]?
The TGI was 26.9 µM.

What about the TGI [7] of the same compound?
Its TGI is 28.8 µM.

And the TGI [8]?
Its TGI is 21.9 µM.

What about the TGI [9] of the same compound?
The TGI was 22.9 µM.

Which results are given for COC(=O)C1CCCCNC(=O)CCC(NC(=O)OCc2ccccc2)C(=O)N1 (stereo not drawn) (Cbz-Glu-Lys-OMe; lactam 1-2; configuration not given here)?
TGI [1]: > 100 µM; TGI [2]: 95.1 µM; TGI [3]: > 100 µM; TGI [4]: > 100 µM; TGI [5]: > 100 µM; TGI [6]: > 100 µM; TGI [7]: > 100 µM; TGI [8]: > 100 µM; TGI [9]: > 100 µM
